Test systems include 786-0; A549; BT-549; DU-145; HCT-15; HT-29; KM12; LOX IMVI; MDA-MB-435; OVCAR-4; OVCAR-5; PC-3; SF-268; SF-295; SK-OV-3; UACC-62.
Common to all, as to experiment: NCI anticancer screen, dose series, 48 h

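Test compounds were applied to cells in 96-well plates for 48 hours at 5 doses. Abbreviation: GI50, concentration required for 50% inhibition of growth.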 Calls of active or inactive are those of the source. Rule as the data show it: active = GI50 up to about 1.1 µM and inactive = higher.

In the case of `O=C1c2ccccc2C(=O)c2c1c1cc(O)ccc1n2Cc1ccc(Cl)cc1Cl`, the GI50 was 2.75 µM (inactive) with 786-0; 3.27 µM (inactive) in the assay with A549; 18.5 µM (inactive) in the assay on BT-549; 8.13 µM (inactive) in the assay with DU-145; 5.66 µM in the assay on HCT-15; 16.6 µM (inactive) in the assay with HT-29. Also, the GI50 is 14.4 µM (inactive) in the assay with KM12; 2.9 µM (inactive) in the assay on LOX IMVI; 9.42 µM (inactive) in the assay with MDA-MB-435; 1.9 µM (inactive) in the assay on OVCAR-4; 1.89 µM (inactive) in the assay on OVCAR-5; 1.61 µM (inactive) in the assay with PC-3. Moreover, the GI50 is 12.9 µM (inactive) in the assay with SF-268, 7.5 µM (inactive) in the assay with SF-295, 1.75 µM (inactive) with SK-OV-3 and 7.66 µM (inactive) in the assay on UACC-62.

Regarding `O=C(N/N=C(COc1cccc(Cl)c1)\N=C\c1ccncc1)c1ccncc1`, the GI50 in the assay with 786-0 was > 100 µM (inactive); in the assay on A549, > 100 µM (inactive); with BT-549, > 100 µM (inactive); in the assay with DU-145, > 100 µM (inactive); in the assay with HCT-15, more than 100 µM; in the assay on HT-29, > 100 µM (inactive). For the same compound, the GI50 with KM12 was > 100 µM (inactive); in the assay with LOX IMVI it was > 100 µM (inactive); in the assay with MDA-MB-435, 75.3 µM (inactive); in the assay with OVCAR-4, > 100 µM (inactive); with OVCAR-5, > 100 µM (inactive); in the assay on PC-3, > 100 µM (inactive). The GI50 in the assay with SF-268, in the assay on SF-295, with SK-OV-3 and in the assay with UACC-62 was > 100 µM (inactive) each time.

With `O=c1cnn(C2OC(CO)C(O)C(F)C2O)c(=O)[nH]1` (configuration not stated), the GI50 is > 100 µM (inactive) in the assay with 786-0; > 100 µM (inactive) with A549; > 100 µM (inactive) in the assay with BT-549; > 100 µM (inactive) in the assay with DU-145; more than 100 µM in the assay with HCT-15; > 100 µM (inactive) in the assay on HT-29. For the same compound, the GI50 in the assay with KM12, in the assay on LOX IMVI, in the assay on MDA-MB-435, in the assay on OVCAR-4, with OVCAR-5 and in the assay on PC-3 was > 100 µM (inactive) throughout. Moreover, the GI50 with SF-268, in the assay on SF-295, in the assay with SK-OV-3 and in the assay with UACC-62 was > 100 µM (inactive) throughout.

As for `CCOP(=O)(OCC)C(Cc1cn(S(=O)(=O)c2ccc(C)cc2)cn1)C(=O)O` (configuration not stated), the GI50 in the assay on 786-0 is > 100 µM (inactive); in the assay on A549 it was > 100 µM (inactive); in the assay with BT-549, > 100 µM (inactive); with DU-145 it was > 100 µM (inactive); with HCT-15 it was more than 100 µM; in the assay with HT-29 it was > 100 µM (inactive). Besides, the GI50 with KM12, with LOX IMVI, in the assay with MDA-MB-435, with OVCAR-4, with OVCAR-5 and with PC-3 was > 100 µM (inactive) in each case. The GI50 with SF-268, in the assay on SF-295, with SK-OV-3 and in the assay with UACC-62 was > 100 µM (inactive) in each case.

With `COC(=O)C1=C(OC(=O)/C=C/c2ccc(Cl)cc2)C(C(=O)OC)[C@]2(O)[C@@H](C(=O)OC)[C@H]1C[C@@H](c1ccccc1)[C@@H]2C(=O)OC` (some centres not stated), the GI50 with 786-0 is 4.92 µM (inactive); in the assay on A549, 3.7 µM (inactive); with BT-549, 6.55 µM (inactive); with DU-145, 7.31 µM (inactive); in the assay with HCT-15, 3.66 µM; in the assay with HT-29, 7.74 µM (inactive). Besides, the GI50 in the assay with KM12 was 4.89 µM (inactive); with LOX IMVI it was 7.19 µM (inactive); in the assay with MDA-MB-435, 3.82 µM (inactive); in the assay on OVCAR-4 it was 5.19 µM (inactive); with OVCAR-5 it was 17.7 µM (inactive); in the assay with PC-3, 5.65 µM (inactive). For the same compound, the GI50 in the assay with SF-268 is 4.66 µM (inactive); in the assay with SF-295 it was 9.23 µM (inactive); with SK-OV-3 it was 29.9 µM (inactive); in the assay with UACC-62, 7.45 µM (inactive).

`CNC(=O)CCC(NC(=O)OC(C)(C)C)C(=O)NC(Cc1ccc(NC(=O)CCCCC(C)=O)cc1)C(=O)NCC(=O)NC` (configuration not stated): the GI50 with 786-0 was > 100 µM (inactive); in the assay on A549, > 100 µM (inactive); with BT-549, > 100 µM (inactive); in the assay with DU-145, > 100 µM (inactive); in the assay on HCT-15, more than 100 µM; in the assay on HT-29 it was > 100 µM (inactive). Moreover, the GI50 in the assay on KM12, in the assay with LOX IMVI, with MDA-MB-435, in the assay with OVCAR-4, with OVCAR-5 and in the assay with PC-3 was > 100 µM (inactive) throughout. Moreover, the GI50 with SF-268, with SF-295, in the assay with SK-OV-3 and in the assay with UACC-62 was > 100 µM (inactive) in each case.

For `CN(C)CCCNC(=O)c1cc(NC(=O)c2cc(NS(=O)(=O)c3ccc4c(c3)C(=O)c3ccccc3C4=O)cn2C)cn1C`, the GI50 is > 100 µM (inactive) in the assay on 786-0; > 100 µM (inactive) in the assay on A549; 52.7 µM (inactive) in the assay with BT-549; > 100 µM (inactive) in the assay with DU-145; more than 100 µM in the assay on HCT-15; 65.3 µM (inactive) in the assay with HT-29. Further, the GI50 in the assay with KM12 was 80.7 µM (inactive); with LOX IMVI, 55.3 µM (inactive); in the assay with MDA-MB-435 it was 83.8 µM (inactive); in the assay on OVCAR-4 it was > 100 µM (inactive); with OVCAR-5, > 100 µM (inactive); with PC-3, > 100 µM (inactive). Moreover, the GI50 in the assay with SF-268 was > 100 µM (inactive); in the assay on SF-295, > 100 µM (inactive); in the assay on SK-OV-3, < 0.01 µM (active); with UACC-62, 89.9 µM (inactive).

Turning to `CC(=O)O[C@H]1C(=O)[C@]2(C)[C@@H](OC(=O)OCCC(O)CO)C[C@H]3OC[C@@]3(OC(C)=O)[C@H]2[C@H](OC(=O)c2ccccc2)[C@]2(O)C[C@H](OC(=O)[C@H](O)[C@@H](NC(=O)c3ccccc3)c3ccccc3)C(C)=C1C2(C)C` (some centres not stated), the GI50 was 0.08 µM (active) in the assay with 786-0; 0.035 µM (active) in the assay with A549; 0.0667 µM (active) in the assay on BT-549; 0.0125 µM (active) in the assay on DU-145; 2.14 µM in the assay with HCT-15; < 0.01 µM (active) in the assay on HT-29. For the same compound, the GI50 with KM12 was < 0.01 µM (active); with LOX IMVI it was < 0.01 µM (active); in the assay on MDA-MB-435 it was < 0.01 µM (active); in the assay on OVCAR-4 it was 13.9 µM (inactive); in the assay with OVCAR-5, 0.0303 µM (active); in the assay with PC-3, < 0.0128 µM (active). Further, the GI50 in the assay on SF-268 is < 0.0171 µM (active); with SF-295, 0.193 µM (active); in the assay with SK-OV-3 it was 0.0307 µM (active); in the assay with UACC-62, 0.0108 µM (active).

`CC(C)(C)C(=O)c1c(O)c2ccccc2c2ccccc2c1=O`: the GI50 was > 100 µM (inactive) with 786-0; > 100 µM (inactive) in the assay with A549; 32.4 µM (inactive) in the assay on BT-549; > 100 µM (inactive) in the assay on DU-145; 64.4 µM with HCT-15; 49.7 µM (inactive) with HT-29. In addition, the GI50 with KM12 was 79.3 µM (inactive); with LOX IMVI, 47.8 µM (inactive); with MDA-MB-435 it was > 100 µM (inactive); with OVCAR-4, 62.1 µM (inactive); in the assay with OVCAR-5 it was > 100 µM (inactive); with PC-3, > 100 µM (inactive). In addition, the GI50 was > 100 µM (inactive) with SF-268, 48.6 µM (inactive) in the assay with SF-295, > 100 µM (inactive) in the assay on SK-OV-3 and 76.4 µM (inactive) in the assay with UACC-62.

As for `C[C@H]1CC(=O)C[C@@H]2CC[C@@H]3[C@H](CC[C@]4(C)C(OC(=O)c5cccc6c(=O)c7ccccc7[nH]c56)CC[C@@H]34)[C@]21C` (some centres not stated), the GI50 was 48 µM (inactive) with 786-0; 23.2 µM (inactive) in the assay on A549; 26.7 µM (inactive) in the assay with BT-549; 54.3 µM (inactive) in the assay on DU-145; 31.3 µM in the assay on HCT-15; 32.5 µM (inactive) in the assay on HT-29. Besides, the GI50 in the assay with KM12 is 30.4 µM (inactive); in the assay on LOX IMVI it was 31.2 µM (inactive); with MDA-MB-435 it was 36.4 µM (inactive); in the assay with OVCAR-4, 26.1 µM (inactive); in the assay with OVCAR-5 it was > 100 µM (inactive); in the assay with PC-3, 14.8 µM (inactive). Besides, the GI50 was 57.5 µM (inactive) in the assay on SF-268, 38.5 µM (inactive) with SF-295, 16.3 µM (inactive) with SK-OV-3 and 21.6 µM (inactive) in the assay with UACC-62.

For `O=C1/C(=C/c2ccccc2)CCc2ccc([N+](=O)[O-])cc21`, the GI50 with 786-0 was 28.4 µM (inactive); with A549, > 100 µM (inactive); with BT-549 it was 31.3 µM (inactive); in the assay on DU-145, > 72.3 µM (inactive); in the assay on HCT-15, 39.7 µM; in the assay on HT-29 it was > 100 µM (inactive). Moreover, the GI50 with KM12 was 42.3 µM (inactive); with LOX IMVI it was 21.5 µM (inactive); in the assay with MDA-MB-435 it was 40.8 µM (inactive); with OVCAR-4 it was 39.5 µM (inactive); in the assay on OVCAR-5, > 100 µM (inactive); in the assay on PC-3, 44.2 µM (inactive). The GI50 in the assay with SF-268 is 30.7 µM (inactive); with SF-295, 33 µM (inactive); with SK-OV-3, 41 µM (inactive); in the assay on UACC-62 it was 31 µM (inactive).

Take `Clc1ccccc1C(Nc1ncccn1)Nc1ncccn1`: the GI50 in the assay on 786-0 is > 100 µM (inactive); in the assay with A549, > 100 µM (inactive); in the assay with BT-549 it was > 100 µM (inactive); in the assay on DU-145, > 100 µM (inactive); with HCT-15 it was more than 100 µM; in the assay on HT-29, > 100 µM (inactive). Also, the GI50 in the assay on KM12 was > 100 µM (inactive); with LOX IMVI, > 100 µM (inactive); with MDA-MB-435, 76.6 µM (inactive); in the assay with OVCAR-4, > 100 µM (inactive); with OVCAR-5, > 100 µM (inactive); with PC-3 it was > 100 µM (inactive). Also, the GI50 with SF-268, in the assay on SF-295, in the assay with SK-OV-3 and in the assay on UACC-62 was > 100 µM (inactive) in each case.

These data come from ChEMBL document CHEMBL1201862, “PubChem BioAssay data set” (2004).
